Assay results taken from ChEMBL document CHEMBL3885881, “DrugMatrix”.

Organism: Rattus norvegicus
Experiment: DrugMatrix - Regimen: Daily Repeat
Assay type: toxicity, organism-based, Sprague-Dawley
Parameters: regimen Daily Repeat, gender Male, age 6-8 weeks
Details: in vivo, po, route oral GAVAGE, vehicle .5 % CMC; for ABSOLUTE BASOPHIL / ABSOLUTE EOSINOPHIL / ABSOLUTE LYMPHOCYTE / ABSOLUTE MONOCYTE / ABSOLUTE SEGMENTED NEUTROPHIL / BASOPHIL / EOSINOPHIL / ERYTHROCYTE COUNT / HEMATOCRIT / HEMOGLOBIN / LEUKOCYTE COUNT / LYMPHOCYTE / MEAN CORPUSCULAR HEMOGLOBIN / MEAN CORPUSCULAR HEMOGLOBIN CONCENTRATION / MEAN CORPUSCULAR VOLUME / MONOCYTE / NEUTROPHIL / NUCLEATED RED BLOOD CELLS / PLATELET COUNT: tissue Blood; for ALANINE AMINOTRANSFERASE / ALBUMIN / ALKALINE PHOSPHATASE / ASPARTATE AMINOTRANSFERASE / BLOOD UREA NITROGEN / CARBON DIOXIDE / CHLORIDE / CHOLESTEROL / CREATINE PHOSPHOKINASE / CREATININE / GLUCOSE / LACTATE DEHYDROGENASE / LIPASE / PHOSPHORUS / POTASSIUM / SODIUM / TOTAL BILIRUBIN / TOTAL PROTEIN / URIC ACID: tissue Plasma
[1] = 55 mg/kg, 120 h, dose level Low, time 5 day
[2] = 1000 mg/kg, 72 h, dose level High, time 3 day
[3] = 1000 mg/kg, 120 h, dose level High, time 5 day

## CCN1CCCC1CNC(=O)c1cc(S(N)(=O)=O)ccc1OC (centres undefined) [SULPIRIDE]
[1]
  ABSOLUTE BASOPHIL: 0 CELLS/uL
  ABSOLUTE EOSINOPHIL: 0 CELLS/uL
  ABSOLUTE LYMPHOCYTE: 14792 CELLS/uL
  ABSOLUTE MONOCYTE: 54.33 CELLS/uL
  ABSOLUTE SEGMENTED NEUTROPHIL: 2187 CELLS/uL
  BASOPHIL: 0%
  EOSINOPHIL: 0%
  ERYTHROCYTE COUNT: 5.47 x10E6/uL
  HEMATOCRIT: 34.67%
  HEMOGLOBIN: 13.83 G/DL
  LEUKOCYTE COUNT: 17.03 x10E3/uL
  LYMPHOCYTE: 86%
  MEAN CORPUSCULAR HEMOGLOBIN: 25.3 pg
  MEAN CORPUSCULAR HEMOGLOBIN CONCENTRATION: 39.93 G/DL
  MEAN CORPUSCULAR VOLUME: 63.4 fL
  MONOCYTE: 0.33%
  NEUTROPHIL: 13.67%
  NUCLEATED RED BLOOD CELLS: 0 /100WBC
  PLATELET COUNT: 1253.33 x10E3/uL
  ALANINE AMINOTRANSFERASE: 50.67 u/L
  ALBUMIN: 4.43 G/DL
  ALKALINE PHOSPHATASE: 322.67 u/L
  ASPARTATE AMINOTRANSFERASE: 90 u/L
  BLOOD UREA NITROGEN: 16 mg/dL
  CARBON DIOXIDE: 28 mmol/L
  CHLORIDE: 102 MEQ/L
  CHOLESTEROL: 86.33 mg/dL
  CREATINE PHOSPHOKINASE: 434.67 u/L
  CREATININE: 0.2 mg/dL
  GLUCOSE: 160.33 mg/dL
  LACTATE DEHYDROGENASE: 149 u/L
  LIPASE: 9 u/L
  PHOSPHORUS: 13 mg/dL
  POTASSIUM: 6.98 MEQ/L
  SODIUM: 147.83 MEQ/L
  TOTAL BILIRUBIN: 0.2 mg/dL
  TOTAL PROTEIN: 6.2 G/DL
  URIC ACID: 1.9 mg/dL
[2]
  ABSOLUTE BASOPHIL: 0 CELLS/uL
  ABSOLUTE EOSINOPHIL: 50.67 CELLS/uL
  ABSOLUTE LYMPHOCYTE: 15013.67 CELLS/uL
  ABSOLUTE MONOCYTE: 0 CELLS/uL
  ABSOLUTE SEGMENTED NEUTROPHIL: 1202.33 CELLS/uL
  BASOPHIL: 0%
  EOSINOPHIL: 0.33%
  ERYTHROCYTE COUNT: 5.92 x10E6/uL
  HEMATOCRIT: 38.13%
  HEMOGLOBIN: 15.07 G/DL
  LEUKOCYTE COUNT: 16.27 x10E3/uL
  LYMPHOCYTE: 92%
  MEAN CORPUSCULAR HEMOGLOBIN: 25.5 pg
  MEAN CORPUSCULAR HEMOGLOBIN CONCENTRATION: 39.53 G/DL
  MEAN CORPUSCULAR VOLUME: 64.5 fL
  MONOCYTE: 0%
  NEUTROPHIL: 7.67%
  NUCLEATED RED BLOOD CELLS: 0 /100WBC
  PLATELET COUNT: 1327 x10E3/uL
  ALANINE AMINOTRANSFERASE: 52.33 u/L
  ALBUMIN: 4.53 G/DL
  ALKALINE PHOSPHATASE: 415 u/L
  ASPARTATE AMINOTRANSFERASE: 78.33 u/L
  BLOOD UREA NITROGEN: 16.67 mg/dL
  CARBON DIOXIDE: 29.33 mmol/L
  CHLORIDE: 102.67 MEQ/L
  CHOLESTEROL: 85 mg/dL
  CREATINE PHOSPHOKINASE: 227.33 u/L
  CREATININE: 0.21 mg/dL
  GLUCOSE: 146 mg/dL
  LACTATE DEHYDROGENASE: 310 u/L
  LIPASE: 9.33 u/L
  PHOSPHORUS: 14.17 mg/dL
  POTASSIUM: 7.01 MEQ/L
  SODIUM: 147.37 MEQ/L
  TOTAL BILIRUBIN: 0.2 mg/dL
  TOTAL PROTEIN: 6.33 G/DL
  URIC ACID: 1.47 mg/dL
[3]
  ABSOLUTE BASOPHIL: 0 CELLS/uL
  ABSOLUTE EOSINOPHIL: 69.67 CELLS/uL
  ABSOLUTE LYMPHOCYTE: 10948.67 CELLS/uL
  ABSOLUTE MONOCYTE: 52.33 CELLS/uL
  ABSOLUTE SEGMENTED NEUTROPHIL: 1129.33 CELLS/uL
  BASOPHIL: 0%
  EOSINOPHIL: 0.67%
  ERYTHROCYTE COUNT: 5.48 x10E6/uL
  HEMATOCRIT: 36.03%
  HEMOGLOBIN: 14.33 G/DL
  LEUKOCYTE COUNT: 12.2 x10E3/uL
  LYMPHOCYTE: 89.67%
  MEAN CORPUSCULAR HEMOGLOBIN: 26.17 pg
  MEAN CORPUSCULAR HEMOGLOBIN CONCENTRATION: 39.77 G/DL
  MEAN CORPUSCULAR VOLUME: 65.8 fL
  MONOCYTE: 0.33%
  NEUTROPHIL: 9.33%
  NUCLEATED RED BLOOD CELLS: 0.33 /100WBC
  PLATELET COUNT: 1145.33 x10E3/uL
  ALANINE AMINOTRANSFERASE: 56.33 u/L
  ALBUMIN: 4.6 G/DL
  ALKALINE PHOSPHATASE: 436.67 u/L
  ASPARTATE AMINOTRANSFERASE: 86 u/L
  BLOOD UREA NITROGEN: 17.67 mg/dL
  CARBON DIOXIDE: 26.33 mmol/L
  CHLORIDE: 99.33 MEQ/L
  CHOLESTEROL: 77 mg/dL
  CREATINE PHOSPHOKINASE: 198 u/L
  CREATININE: 0.18 mg/dL
  GLUCOSE: 150.67 mg/dL
  LACTATE DEHYDROGENASE: 162 u/L
  LIPASE: 13.33 u/L
  PHOSPHORUS: 14.83 mg/dL
  POTASSIUM: 7.2 MEQ/L
  SODIUM: 147.4 MEQ/L
  TOTAL BILIRUBIN: 0.2 mg/dL
  TOTAL PROTEIN: 6.37 G/DL
  URIC ACID: 1.9 mg/dL
